{"source": "paper PMC9413440", "about": "“An Iterative Approach Guides Discovery of the FabI Inhibitor Fabimycin, a Late-Stage Antibiotic Candidate with In Vivo Efficacy against Drug-Resistant Gram-Negative Infections” (ACS Central Science, 2022)", "key": {"hERG ion channel": {"target": "hERG ion channel (Homo sapiens, UniProt Q12809)", "sequence (Q12809 whole entry)": "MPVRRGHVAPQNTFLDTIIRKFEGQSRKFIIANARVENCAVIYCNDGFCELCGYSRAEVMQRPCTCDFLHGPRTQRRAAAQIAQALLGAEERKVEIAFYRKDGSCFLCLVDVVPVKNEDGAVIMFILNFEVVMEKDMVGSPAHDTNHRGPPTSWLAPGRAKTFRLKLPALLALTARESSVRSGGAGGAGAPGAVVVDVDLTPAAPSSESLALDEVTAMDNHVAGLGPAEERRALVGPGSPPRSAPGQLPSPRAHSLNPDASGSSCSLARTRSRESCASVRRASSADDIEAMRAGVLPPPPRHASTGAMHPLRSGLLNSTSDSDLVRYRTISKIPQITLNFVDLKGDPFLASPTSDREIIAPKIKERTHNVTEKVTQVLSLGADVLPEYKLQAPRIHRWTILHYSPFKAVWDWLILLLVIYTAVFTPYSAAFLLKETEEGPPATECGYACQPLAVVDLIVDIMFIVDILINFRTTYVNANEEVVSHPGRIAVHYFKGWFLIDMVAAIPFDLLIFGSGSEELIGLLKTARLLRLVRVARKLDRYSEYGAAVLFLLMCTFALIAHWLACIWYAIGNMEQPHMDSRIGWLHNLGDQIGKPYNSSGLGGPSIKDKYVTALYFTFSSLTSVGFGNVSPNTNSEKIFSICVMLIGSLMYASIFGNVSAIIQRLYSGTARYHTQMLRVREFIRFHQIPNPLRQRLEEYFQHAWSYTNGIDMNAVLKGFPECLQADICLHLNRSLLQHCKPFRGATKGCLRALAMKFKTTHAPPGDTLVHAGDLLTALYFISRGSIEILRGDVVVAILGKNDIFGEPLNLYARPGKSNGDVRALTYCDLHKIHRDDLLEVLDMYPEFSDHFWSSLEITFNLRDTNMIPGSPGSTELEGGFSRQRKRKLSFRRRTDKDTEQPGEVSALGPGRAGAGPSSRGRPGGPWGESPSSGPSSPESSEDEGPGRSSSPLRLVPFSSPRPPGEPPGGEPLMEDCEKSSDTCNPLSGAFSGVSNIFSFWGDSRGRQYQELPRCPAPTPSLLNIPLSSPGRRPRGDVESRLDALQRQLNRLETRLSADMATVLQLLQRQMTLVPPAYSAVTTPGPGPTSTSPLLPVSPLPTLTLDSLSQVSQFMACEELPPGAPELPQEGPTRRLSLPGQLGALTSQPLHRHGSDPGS", "experiment": "hERG activity"}, "HFF-1, A549, HepG2 cells": {"test_system": "HFF-1, A549, HepG2 cells", "details": "72 h", "procedure": "HFF-1 cells (newborn) were obtained from the ATCC. HFF-1 cells were grown in Dulbecco’s Modified Eagle’s minimum essential medium with 15% fetal bovine serum (Gemini Benchmark; catalogue number: 100-106), 100 µg/mL penicillin and 100 µg/mL streptomycin. A549 cells ([…], adult) were obtained from the ATCC. A549 cells were grown in Roswell Park Memorial Institute (RPMI) media with 100 µg/mL penicillin and 10% fetal bovine serum (FBS). HepG2 cells were authenticated by the University of Arizona Genetics Core using an autosomal STR profile. HepG2 cells were grown in Dulbecco’s Modified Eagle’s minimum essential medium with 10% fetal bovine serum. All cells were cultured at 37 °C under a 5% CO2 environment. Cell lines were authenticated by a commercial vendor and inspected visually in house. Cell lines were not tested for Mycoplasma contamination. The media was prepared by the University of Illinois School of Chemical Sciences Cell Media Facility.\nH. sapiens HFF-1, A549, and HepG2 cells were seeded (3,000-6,000 cells/well) in a 96-well plate (Greiner Bio-One;"}}}
{"smiles": "Cc1c(CN(C)C(=O)/C=C/c2cnc3c(c2)CC[C@H](N)C(=O)N3)oc2ccccc12", "note": "[fabimycin]", "values": [{"measurement": "activity against the hERG ion channel", "setting": "hERG ion channel", "value": "lower activity against the hERG ion channel relative to both Debio-1452 and Debio-1452-NH3"}, {"measurement": "cytotoxicity against human cell lines", "setting": "HFF-1, A549, HepG2 cells", "value": "less cytotoxic relative to Debio-1452-NH3"}]}
